This passage reports IC50 results from patent US20260217703A1, “INHIBITORS OF a-HEMOL YSIN OF STAPHYLOCOCCUS AUREUS” (HELMHOLTZ-ZENTRUM FÜR INFEKTIONSFORSCHUNG GMBH, priority 2022, published 2026).

Test [1] has as its target hemolysin alpha from Staphylococcus aureus (Staphylococcus aureus, UniProt P09616). Briefly: cell-based.
The target of test [2] is S. aureus Alpha hemolysin (Staphylococcus aureus, UniProt P09616). Briefly: cell-based.

Where only a bound is given, the exact number is not on record here.

Sequence of S. aureus Alpha hemolysin (P09616 27-319 limits assumed): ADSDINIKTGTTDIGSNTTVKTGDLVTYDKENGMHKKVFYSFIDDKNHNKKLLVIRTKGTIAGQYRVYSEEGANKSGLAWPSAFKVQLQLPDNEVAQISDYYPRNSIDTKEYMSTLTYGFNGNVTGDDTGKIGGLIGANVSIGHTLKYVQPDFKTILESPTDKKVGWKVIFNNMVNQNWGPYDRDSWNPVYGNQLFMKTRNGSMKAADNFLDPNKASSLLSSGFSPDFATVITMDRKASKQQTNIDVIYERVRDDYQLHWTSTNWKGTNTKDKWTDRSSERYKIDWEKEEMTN
Sequence of hemolysin alpha from Staphylococcus aureus (P09616 27-319 limits assumed): as above

`Cc1nc2cc(-c3ncc(NS(=O)(=O)c4nc5[nH]c(=O)c(=O)[nH]c5cc4C)cc3Cl)ccc2o1` [Compound 35, N-(5-chloro-6-(2-methylbenzo[d]oxazol-5-yl)pyridin-3-yl)-7-methyl-2,3-dioxo-1,2,3,4-tetrahydropyrido[2,3-b]pyrazine-6-sulfonamide]: the values for the IC50 in test [1] and in test [2] were below 30 nM and 100 to 1000 nM, respectively.
As for `O=c1[nH]c2ccc(S(=O)(=O)Nc3ccc(-c4ccc(F)cc4)c(Cl)c3)nc2[nH]c1=O` [Compound 29, N-(2-chloro-4′-fluoro-[1,1′-biphenyl]-4-yl)-2,3-dioxo-1,2,3,4-tetrahydropyrido[2,3-b]pyrazine-6-sulfonamide], the IC50 – broadly, the concentration needed to halve the response being measured – in test [1] lay within 100 to 1000 nM; in test [2], 1000 to 6000 nM.
In the case of `COc1ccc(-c2ccc(NS(=O)(=O)c3nc4[nH]c(=O)c(=O)[nH]c4cc3C)cc2Cl)cc1F` [Compound 14, N-(2-chloro-3′-fluoro-4′-methoxy-[1,1′-biphenyl]-4-yl)-7-methyl-2,3-dioxo-1,2,3,4-tetrahydropyrido[2,3-b]pyrazine-6-sulfonamide], the IC50 in test [1] fell in the range of 30 to 100 nM; in test [2] it was 100 to 1000 nM.
The corresponding values for `Cc1cc2[nH]c(=O)c(=O)[nH]c2nc1S(=O)(=O)Nc1ccc(-c2ccc3oc(C4CC4)nc3c2)c(Cl)c1` [Compound 41, N-(3-chloro-4-(2-cyclopropylbenzo[d]oxazol-5-yl)phenyl)-7-methyl-2,3-dioxo-1,2,3,4-tetrahydropyrido[2,3-b]pyrazine-6-sulfonamide] are below 30 nM and 30 to 100 nM.
Turning to `Cc1nc2cc(-c3ccc(NS(=O)(=O)c4nc5[nH]c(=O)c(=O)[nH]c5cc4C)cc3C(F)(F)F)ccc2o1` [Compound 38, 7-methyl-N-(4-(2-methylbenzo[d]oxazol-5-yl)-3-(trifluoromethyl)phenyl)-2,3-dioxo-1,2,3,4-tetrahydropyrido[2,3-b]pyrazine-6-sulfonamide], the IC50 was below 30 nM in test [1] and 100 to 1000 nM in test [2].
